Results: patent US7314861B2, “Melanin-concentrating hormone analogs” (priority 2001, dated 2008)
Where a SMILES comes first, the peptide text is derived from it. Bridges are numbered along the chain shown (N, C = ends). [ ]: non-standard residue; d: D form. Arg(NO2) = N=C(NCCC[C@H](N)C(=O)O)N[N+](=O)[O-]; hArg = N=C(N)NCCCC[C@H](N)C(=O)O

What was measured:
human MCH-1R [1] = target: T1, human MCH-1R (Homo sapiens, UniProt Q99705); assay: Radiolabeled MCH-R binding assay (SPA based), MCH-1R
Experimental: (§1) Cell membranes were prepared on ice. Each T-75 flask was rinsed twice with 10 ml of Enzyme-free Cell Dissociation Buffer (Specialty Media, Lavallette, N.J.), and the cell monolayer was detached in an additional 10 ml of Enzyme-free Cell Dissociation Buffer by incubation at room temperature for 10 minutes. Dissociated cells were centrifuged (500×g for 10 minutes at 4° C.), resuspended in 5 ml homogenization buffer (10 mM Tris-HCl, pH 7.4, 0.01 mM Pefabloc, 10 μM phosphoramidon, 40 μg/ml bacitracin) and then homogenized using a glass homogenizer (10-15 strokes). The homogenate was centrifuged for 10 minutes (1,000×g at 4° C.). The resulting supernatant was then centrifuged at 38,700×g for 15 minutes at 4° C. Pelleted membranes were resuspended (passed through 25 gauge needle 5 times), snap-frozen on liquid nitrogen, and stored at −80° C. until use.
(§2) For the SPA-based assay, WGA-PVT beads (NEN Life Sciences Products) were resuspended in Dulbecco's PBS with calcium and magnesium (500 mg beads in 4 ml PBS). […] The suspension was mixed gently for 20 minutes, 12.3 ml of assay buffer and protease inhibitors were added (final concentration given): 2 μg/ml leupeptin, 10 μM phosphoramidon, 40 μg/ml bacitracin, 5 μg/ml aprotinin, 0.1 mM Pefabloc.
(§3) Coated beads were kept on ice until use. […] Binding reactions were allowed to proceed at room temperature for 3 hours. Quantitation was performed by scintillation counting (TopCount device).

human MCH-R2 = human MCH-R2 (Homo sapiens, UniProt Q969V1); assay: Aequorin bioluminescence functional assay, MCH-2R; conditions: for MCH-2R Activation %: % Activation at 10 μM; for MCH-2R Activation % / EC50: aequorin functional assay; for EC50: MCH-2R EC50 (nM); for selective activity at MCH-2R over MCH-1R: greater binding and/or activation at MCH-2R than at MCH-1R
human MCH-R2, sequence (Q969V1 whole entry): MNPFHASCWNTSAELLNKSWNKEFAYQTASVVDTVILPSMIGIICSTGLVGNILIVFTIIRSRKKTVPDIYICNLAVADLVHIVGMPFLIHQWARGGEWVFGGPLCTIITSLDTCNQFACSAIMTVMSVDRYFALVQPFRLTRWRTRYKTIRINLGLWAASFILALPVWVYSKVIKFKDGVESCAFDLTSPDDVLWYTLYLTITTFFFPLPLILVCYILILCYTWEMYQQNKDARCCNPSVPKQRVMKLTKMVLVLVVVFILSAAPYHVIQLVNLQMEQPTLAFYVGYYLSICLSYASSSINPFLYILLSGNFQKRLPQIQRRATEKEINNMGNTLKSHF
Experimental: (§4) The aequorin bioluminescence assay can be used to measure the activity of G protein-coupled receptors that couple through the Gα protein subunit family consisting of Gq and G11. Such coupling leads to phospholipase C activation, intracellular calcium mobilization and protein kinase C activation.
(§5) Following approximately 40 hours of expression the apo-aequorin in the cells was charged for 4 hours with coelenterazine (10 μM) under reducing conditions (300 μM reduced glutathione) in ECB buffer (140 mM NaCl, 20 mM KCl, 20 mM HEPES-NaOH [pH=7.4], 5 mM glucose, 1 mM MgCl2, 1 mM CaCl2, 0.1 mg/ml bovine serum albumin).
(§6) The cells were harvested, washed once in ECB medium and resuspended to 500,000 cells/ml. 100 μl of cell suspension (corresponding to 5×10^4 cells) was then injected into the test plate containing MCH or MCH analogs, and the integrated light emission was recorded over 30 seconds, in 0.5 second units. 20 μL of lysis buffer (0.1% final Triton X-100 concentration) was then injected and the integrated light emission recorded over 10 seconds, in 0.5 second units. The “fractional response” values for each well were calculated by taking the ratio of the integrated response to the initial challenge to the total integrated luminescence including the Triton X-100 lysis response.

human MCH-1R [2] = target: T1, human MCH-1R; assay: Aequorin bioluminescence functional assay, MCH-1R; conditions: for MCH-1R Activation %: % Activation at 10 μM, aequorin functional assay
Experimental: as §4, §5, §6

human MCH-2R = human MCH-2R (Homo sapiens, UniProt Q969V1); assay: Radiolabeled MCH-R binding assay (SPA based), MCH-2R; conditions: MCH-2R IC50 (nM)
human MCH-2R, sequence (Q969V1 whole entry): as above
Experimental: as §1, §2, §3

[3] = Table 1, inhibition of [125I]-human MCH (Phe13, Tyr19) binding

T1 sequence (Q99705 whole entry): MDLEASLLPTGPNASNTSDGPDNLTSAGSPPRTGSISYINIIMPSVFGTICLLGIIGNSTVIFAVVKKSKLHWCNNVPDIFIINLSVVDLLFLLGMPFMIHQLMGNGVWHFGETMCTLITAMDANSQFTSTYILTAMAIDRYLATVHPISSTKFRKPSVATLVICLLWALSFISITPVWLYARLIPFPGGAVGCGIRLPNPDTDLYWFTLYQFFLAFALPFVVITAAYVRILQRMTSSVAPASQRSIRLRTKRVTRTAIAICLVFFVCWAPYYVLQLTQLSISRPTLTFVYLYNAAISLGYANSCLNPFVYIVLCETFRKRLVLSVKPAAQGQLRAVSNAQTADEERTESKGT

| SMILES | MCH-2R Activation % (human MCH-R2; Table 3) | MCH-1R Activation % (human MCH-1R [2]; Table 3) | MCH-2R Activation % (human MCH-R2; Table 1) | IC50 (human MCH-2R; [3]) | MCH-1R Activation % (human MCH-1R [2]; Table 1) | EC50 (human MCH-R2; Table 1, 293-AEQ17 cells) | other results |
| --- | --- | --- | --- | --- | --- | --- | --- |
| CSCC[C@H](NC(=O)[C@H](C)NC(=O)[C@H](Cc1ccccc1)NC(=O)[C@@H](N)CC(=O)O)C(=O)N[C@@H](CC(C)C)C(=O)N[C@@H](CCCNC(=N)N)C(=O)N[C@H]1CSSC[C@@H](C(=O)N[C@@H](Cc2c[nH]c3ccccc23)C(=O)N[C@@H](CCC(N)=O)C(=O)N[C@H](C(=O)O)C(C)C)NC(=O)[C@@H]2CCCN2C(=O)[C@H](CCCNC(=N)N)NC(=O)[C@H](Cc2ccc(O)cc2)NC(=O)[C@H](C(C)C)NC(=O)[C@H](CCCNC(=N)N)NC(=O)CNC(=O)[C@H](CC(C)C)NC(=O)[C@H](CCSC)NC1=O [compound 43] (H-DFAMLRCMLGRVYRPCWQV-OH; disulfide 7-16; N-terminus and C-terminus assumed) | 95% | 97% |  |  |  |  | IC50 (human MCH-1R [1]): 0.5 nM |
| CSCC[C@@H]1NC(=O)[C@@H](NC(=O)[C@H](CCCNC(=N)N)NC(=O)[C@H](CC(C)C)NC(=O)[C@H](CCSC)NC(=O)[C@H](CC(=O)O)NC(=O)[C@H](Cc2ccccc2)NC(=O)[C@@H](N)CC(=O)O)CSSC[C@@H](C(=O)N[C@@H](Cc2c[nH]c3ccccc23)C(=O)N[C@@H](CCC(N)=O)C(=O)N[C@H](C(=O)O)C(C)C)NC(=O)[C@@H]2CCCN2C(=O)[C@H](C)NC(=O)[C@H](Cc2ccc(O)cc2)NC(=O)[C@H](C(C)C)NC(=O)[C@H](CCCNC(=N)N)NC(=O)CNC(=O)[C@H](CC(C)C)NC1=O [compound 52] (H-DFDMLRCMLGRVYAPCWQV-OH; disulfide 7-16; N-terminus and C-terminus assumed) | 81% | 97% |  |  |  |  | IC50 (human MCH-1R [1]): 1.4 nM; EC50 (human MCH-R2; Table 3): 187 nM |
| CCCC[C@@H]1NC(=O)CNC(=O)[C@H](CC(C)C)NC(=O)[C@H](CCSC)NC(=O)[C@@H](NC(=O)[C@H](CCCNC(=N)N)NC(C)=O)CSSC[C@@H](C(N)=O)NC(=O)[C@@H]2CCCN2C(=O)[C@H](CCCNC(=N)N)NC(=O)[C@H](Cc2ccc(O)cc2)NC(=O)[C@H](C(C)C)NC1=O [compound 26] |  |  | 34% | 9 nM |  |  | selective activity at MCH-2R over MCH-1R (human MCH-R2): selectively active; EC50 (human MCH-1R [2]): > 1000 nM |
| CSCC[C@@H]1NC(=O)[C@@H](NC(=O)[C@H](CCCNC(=N)N)NC(C)=O)CSSC[C@@H](C(N)=O)NC(=O)[C@@H]2CCCN2C(=O)[C@H](CCCNC(=N)N)NC(=O)[C@H](Cc2ccc(O)cc2)NC(=O)[C@H](C(C)C)NC(=O)[C@H](CCCNC(=N)N[N+](=O)[O-])NC(=O)[C@@H](C)NC(=O)[C@H](CC(C)C)NC1=O [compound 37] (Ac-RCML[dA][Arg(NO2)]VYRPC-NH2; disulfide 2-11) |  |  | 34% |  | 0.1% |  | IC50 (human MCH-1R [1]): > 1000 nM; EC50 (human MCH-1R [2]): > 10000 nM |
| CSCC[C@@H]1NC(=O)[C@@H](NC(=O)[C@H](CCCNC(=N)N)NC(C)=O)CSSC[C@@H](C(N)=O)NC(=O)[C@@H]2CCCN2C(=O)[C@H](CCCNC(=N)N)NC(=O)[C@H](Cc2ccc(O)cc2)NC(=O)[C@H](C(C)C)NC(=O)[C@H](CCCNC(=N)N)NC(=O)[C@@H](CC(N)=O)NC(=O)[C@H](CC(C)C)NC1=O [compound 18] |  |  | 106% | 2.3 nM | 39% | 24 nM | selective activity at MCH-2R over MCH-1R (human MCH-R2): selectively active |
| CSCC[C@@H]1NC(=O)[C@@H](NC(=O)[C@H](CCCNC(=N)N)NC(=O)[C@H](CC(C)C)NC(=O)[C@H](CCSC)NC(=O)[C@H](CC(=O)O)NC(=O)[C@H](Cc2ccccc2)NC(=O)[C@@H](N)CC(=O)O)CSSC[C@@H](C(=O)N[C@@H](Cc2c[nH]c3ccccc23)C(=O)N[C@@H](CCC(N)=O)C(=O)N[C@H](C(=O)O)C(C)C)NC(=O)[C@H](C)NC(=O)[C@H](CCCNC(=N)N)NC(=O)[C@H](Cc2ccc(O)cc2)NC(=O)[C@H](C(C)C)NC(=O)[C@H](CCCNC(=N)N)NC(=O)CNC(=O)[C@H](CC(C)C)NC1=O [compound 53] (H-DFDMLRCMLGRVYRACWQV-OH; disulfide 7-16; N-terminus and C-terminus assumed) | 96% | 99% |  |  |  |  | IC50 (human MCH-2R; Table 3): 19 nM |
| CSCC[C@H](NC(=O)[C@H](CC(=O)O)NC(=O)[C@H](Cc1ccccc1)NC(=O)[C@@H](N)CC(=O)O)C(=O)N[C@@H](CC(C)C)C(=O)N[C@@H](CCCNC(=N)N)C(=O)N[C@H]1CSSC[C@@H](C(=O)N[C@@H](Cc2c[nH]c3ccccc23)C(=O)N[C@@H](CCC(N)=O)C(=O)N[C@H](C(=O)O)C(C)C)NC(=O)[C@@H]2CCCN2C(=O)[C@H](CCCNC(=N)N)NC(=O)[C@H](Cc2ccc(O)cc2)NC(=O)[C@H](C(C)C)NC(=O)[C@H](CCCNC(=N)N)NC(=O)CNC(=O)[C@H](CC(C)C)NC(=O)[C@H](C)NC1=O [compound 47] (H-DFDMLRCALGRVYRPCWQV-OH; disulfide 7-16; N-terminus and C-terminus assumed) | 94% | 56% |  |  |  |  | IC50 (human MCH-2R; Table 3): 40 nM |
| CSCC[C@@H]1NC(=O)[C@@H](NC(=O)[C@H](CCCNC(=N)N)NC(=O)[C@H](CC(C)C)NC(=O)[C@H](CCSC)NC(=O)[C@H](CC(=O)O)NC(=O)[C@H](Cc2ccccc2)NC(=O)[C@@H](N)CC(=O)O)CSSC[C@@H](C(=O)N[C@@H](Cc2c[nH]c3ccccc23)C(=O)N[C@@H](C)C(=O)N[C@H](C(=O)O)C(C)C)NC(=O)[C@@H]2CCCN2C(=O)[C@H](CCCNC(=N)N)NC(=O)[C@H](Cc2ccc(O)cc2)NC(=O)[C@H](C(C)C)NC(=O)[C@H](CCCNC(=N)N)NC(=O)CNC(=O)[C@H](CC(C)C)NC1=O [compound 55] (H-DFDMLRCMLGRVYRPCWAV-OH; disulfide 7-16; N-terminus and C-terminus assumed) | 97% | 99% |  |  |  |  | IC50 (human MCH-2R; Table 3): 9.5 nM |
| CSCC[C@@H]1NC(=O)[C@@H](NC(=O)[C@H](CCCNC(=N)N)NC(C)=O)CSSC[C@@H](C(N)=O)NC(=O)[C@@H]2CCCN2C(=O)[C@H](CCCNC(=N)N)NC(=O)[C@H](Cc2ccc(O)cc2)NC(=O)[C@H](C(C)C)NC(=O)[C@H](CCCNC(=N)N)NC(=O)[C@H](c2ccccc2)NC(=O)[C@H](CC(C)C)NC1=O [compound 12] |  |  | 80% |  | 0.1% | 140 nM | selective activity at MCH-2R over MCH-1R (human MCH-R2): selectively active; EC50 (human MCH-1R [2]): > 10000 nM |
| CSCC[C@@H]1NC(=O)[C@@H](NC(=O)[C@H](CCCNC(=N)N)NC(C)=O)CSSC[C@@H](C(N)=O)NC(=O)[C@@H]2CCCN2C(=O)[C@H](CCCNC(=N)N)NC(=O)[C@H](Cc2ccc(O)cc2)NC(=O)[C@H](C(C)C)NC(=O)[C@H](CCCCNC(=N)N)NC(=O)[C@@H](C)NC(=O)[C@H](CC(C)C)NC1=O [compound 36] (Ac-RCML[dA][hArg]VYRPC-NH2; disulfide 2-11) |  |  | 74% | 0.9 nM | 0.1% | 19 nM | selective activity at MCH-2R over MCH-1R (human MCH-R2): selectively active; EC50 (human MCH-1R [2]): > 10000 nM |
| CSCC[C@@H]1NC(=O)[C@@H](NC(=O)[C@H](CCCNC(=N)N)NC(=O)[C@H](CC(C)C)NC(=O)[C@H](CCSC)NC(=O)[C@H](CC(=O)O)NC(=O)[C@H](Cc2ccccc2)NC(=O)[C@@H](N)CC(=O)O)CSSC[C@@H](C(=O)N[C@@H](Cc2c[nH]c3ccccc23)C(=O)N[C@@H](CCC(N)=O)C(=O)N[C@H](C(=O)O)C(C)C)NC(=O)[C@@H]2CCCN2C(=O)[C@H](CCCNC(=N)N)NC(=O)[C@H](Cc2ccc(O)cc2)NC(=O)[C@H](C(C)C)NC(=O)[C@H](CCCNC(=N)N)NC(=O)CNC(=O)[C@H](CC(C)C)NC1=O [compound 1] | 100% | 100% |  | 0.5 nM |  | 30.7 nM | MCH-2R Activation % (human MCH-R2; Table 2): 100%; MCH-1R Activation % (human MCH-1R [2]; Table 2): 100%; IC50 (human MCH-2R; Table 2): 0.5 nM; IC50 (human MCH-2R; Table 3): 0.9 nM |
| CSCC[C@@H]1NC(=O)[C@@H](NC(=O)[C@H](CCCNC(=N)N)NC(C)=O)CSSC[C@@H](C(N)=O)NC(=O)[C@@H]2CCCN2C(=O)[C@H](CCCNC(=N)N)NC(=O)[C@H](Cc2ccccc2)NC(=O)[C@H](C(C)C)NC(=O)[C@H](CCCNC(=N)N)NC(=O)CNC(=O)[C@H](CC(C)C)NC1=O [compound 27] |  |  | 94% | 1.5 nM | 96% | 12 nM |  |
| CSCC[C@H](NC(=O)[C@H](CC(=O)O)NC(=O)[C@H](C)NC(=O)[C@@H](N)CC(=O)O)C(=O)N[C@@H](CC(C)C)C(=O)N[C@@H](CCCNC(=N)N)C(=O)N[C@H]1CSSC[C@@H](C(=O)N[C@@H](Cc2c[nH]c3ccccc23)C(=O)N[C@@H](CCC(N)=O)C(=O)N[C@H](C(=O)O)C(C)C)NC(=O)[C@@H]2CCCN2C(=O)[C@H](CCCNC(=N)N)NC(=O)[C@H](Cc2ccc(O)cc2)NC(=O)[C@H](C(C)C)NC(=O)[C@H](CCCNC(=N)N)NC(=O)CNC(=O)[C@H](CC(C)C)NC(=O)[C@H](CCSC)NC1=O [compound 42] (H-DADMLRCMLGRVYRPCWQV-OH; disulfide 7-16; N-terminus and C-terminus assumed) | 102% | 97% |  |  |  |  |  |
| CSCC[C@@H]1NC(=O)[C@@H](NC(=O)[C@H](CCCNC(=N)N)NC(=O)[C@H](CC(C)C)NC(=O)[C@H](CCSC)NC(=O)[C@H](CC(=O)O)NC(=O)[C@H](Cc2ccccc2)NC(=O)[C@@H](N)CC(=O)O)CSSC[C@@H](C(=O)N[C@@H](Cc2c[nH]c3ccccc23)C(=O)N[C@@H](CCC(N)=O)C(=O)N[C@@H](C)C(=O)O)NC(=O)[C@@H]2CCCN2C(=O)[C@H](CCCNC(=N)N)NC(=O)[C@H](Cc2ccc(O)cc2)NC(=O)[C@H](C(C)C)NC(=O)[C@H](CCCNC(=N)N)NC(=O)CNC(=O)[C@H](CC(C)C)NC1=O [compound 56] (H-DFDMLRCMLGRVYRPCWQA-OH; disulfide 7-16; N-terminus and C-terminus assumed) | 99% | 100% |  |  |  |  |  |
